Experimental data taken from ChEMBL document CHEMBL1129564, “Tyrosine kinase inhibitors. 10. Isomeric 4-[(3-bromophenyl)amino]pyrido[d]-pyrimidines are potent ATP binding site inhibitors of the tyrosine kinase function of the epidermal growth factor receptor” (J Med Chem, 1996).

These compounds were tested against T1, Epidermal growth factor receptor (Homo sapiens, UniProt P00533) (assay: biochemical).
T1 sequence (P00533 whole entry): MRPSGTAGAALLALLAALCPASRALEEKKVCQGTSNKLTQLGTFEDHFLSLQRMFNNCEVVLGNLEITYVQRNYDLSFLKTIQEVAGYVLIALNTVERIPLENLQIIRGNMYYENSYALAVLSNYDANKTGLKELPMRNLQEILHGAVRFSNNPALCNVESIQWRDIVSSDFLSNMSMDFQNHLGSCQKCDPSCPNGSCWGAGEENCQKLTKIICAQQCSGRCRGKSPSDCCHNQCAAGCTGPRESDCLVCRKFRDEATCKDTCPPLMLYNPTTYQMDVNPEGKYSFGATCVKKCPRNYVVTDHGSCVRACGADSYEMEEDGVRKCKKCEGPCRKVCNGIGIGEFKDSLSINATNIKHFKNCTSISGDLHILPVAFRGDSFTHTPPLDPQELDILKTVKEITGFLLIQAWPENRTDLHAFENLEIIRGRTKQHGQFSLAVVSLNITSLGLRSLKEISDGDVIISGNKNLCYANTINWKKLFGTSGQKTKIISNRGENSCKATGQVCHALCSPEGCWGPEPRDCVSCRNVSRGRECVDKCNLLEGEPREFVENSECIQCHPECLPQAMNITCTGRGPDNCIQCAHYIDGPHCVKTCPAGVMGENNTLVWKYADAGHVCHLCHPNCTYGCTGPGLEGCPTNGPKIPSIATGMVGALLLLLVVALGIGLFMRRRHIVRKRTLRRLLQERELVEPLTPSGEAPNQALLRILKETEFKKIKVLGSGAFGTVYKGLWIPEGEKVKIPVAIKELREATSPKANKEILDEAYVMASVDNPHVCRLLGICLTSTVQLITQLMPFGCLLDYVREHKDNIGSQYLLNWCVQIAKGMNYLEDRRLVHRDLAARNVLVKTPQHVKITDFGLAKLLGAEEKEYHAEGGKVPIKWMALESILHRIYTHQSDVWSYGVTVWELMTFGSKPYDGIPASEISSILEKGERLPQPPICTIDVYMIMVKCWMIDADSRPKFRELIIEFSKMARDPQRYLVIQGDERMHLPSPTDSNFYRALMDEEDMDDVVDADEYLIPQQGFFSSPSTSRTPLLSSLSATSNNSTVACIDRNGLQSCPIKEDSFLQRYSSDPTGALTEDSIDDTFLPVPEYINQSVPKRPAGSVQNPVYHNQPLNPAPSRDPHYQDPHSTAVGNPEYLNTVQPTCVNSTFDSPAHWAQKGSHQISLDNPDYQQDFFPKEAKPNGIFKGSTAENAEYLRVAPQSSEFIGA
Description: Inhibitory potency against isolated epidermal growth factor receptor (EGFR) from human A431 carcinoma cells
In the case of `CNc1ccc2ncncc2c1`, the IC50 is reported as 7 nM. Compound `COc1ccc2cncnc2c1` has an IC50 of 10 nM. Compound `c1ccc(CNc2ncnc3ncccc23)cc1` has an IC50 of over 10000 nM. With `Nc1ccc2cncnc2c1` the IC50 was 0.1 nM. `Nc1cc2c(Nc3cccc(Br)c3)ncnc2cn1` showed an IC50 of 0.13 nM. For `c1ccc(CNc2ncnc3cccnc23)cc1`, the IC50 was 603 nM. `CN(C)c1ccc2cncnc2c1` gave an IC50 of 11 nM. Work on `Brc1cccc(Nc2ncnc3ncccc23)c1` yielded an IC50 of 688 nM. For `c1ccc(CNc2ncnc3ccncc23)cc1`, the IC50 was 1460 nM. `COc1ccc2ncncc2c1` was tested, and the IC50 was 30 nM. `CN(C)c1ccc2ncncc2c1` gave an IC50 of 120 nM. `COc1ccc(CNc2cc3c(Nc4cccc(Br)c4)ncnc3cn2)cc1` gave an IC50 of 2.3 nM. With `Clc1ccc2ncnc(Nc3cccc(Br)c3)c2n1` the IC50 was 18 nM. Work on `Brc1cccc(Nc2ncnc3cccnc23)c1` yielded an IC50 of 34 nM. Work on `Fc1ccc2ncnc(Nc3cccc(Br)c3)c2n1` yielded an IC50 of 44 nM. For `Brc1cccc(Nc2ncnc3ccncc23)c1`, the IC50 was 35 nM. Work on `c1ccc(CNc2ncnc3cnccc23)cc1` yielded an IC50 of 2030 nM. Work on `Brc1cccc(Nc2ncnc3cnccc23)c1` yielded an IC50 of 51 nM. `c1ccc2ncncc2c1` [QUINAZOLINE] was tested, and the IC50 was 27 nM. Work on `CNc1cc2c(Nc3ccccc3)ncnc2cn1` yielded an IC50 of 9 nM. In the case of `Fc1ccc2c(Nc3cccc(Br)c3)ncnc2n1`, the IC50 is reported as 684 nM. `CNC1=CC2N=CN(C)/C(=N\c3cccc(Br)c3)C2C=N1` (configuration not stated) showed an IC50 of 3.1 nM. `CN(C)c1ccc2c(Nc3cccc(Br)c3)ncnc2n1` showed an IC50 of 324 nM. Work on `CNc1ccc2cncnc2c1` yielded an IC50 of 4 nM. `Nc1ccc2ncncc2c1` was tested, and the IC50 was 0.79 nM. For `COc1ccc2ncnc(Nc3cccc(Br)c3)c2n1`, the IC50 was 4.3 nM.

The compounds below were run against T1, Epidermal growth factor receptor (assay: Inhibition of Epidermal growth factor receptor autophosphorylation in A431 human epidermoid carcinoma cells).
`Nc1cc2c(Nc3cccc(Br)c3)ncnc2cn1` showed an IC50 of 16 nM. Compound `CNc1cc2c(Nc3cccc(Br)c3)ncnc2cn1` has an IC50 of 15 nM. `CNc1cc2ncnc(Nc3cccc(Br)c3)c2cn1` gave an IC50 of 16 nM. In the case of `Nc1cc2ncnc(NCc3ccccc3)c2cn1`, the IC50 is reported as 2080 nM. With `CN(C)c1ccc2c(Nc3cccc(Br)c3)ncnc2n1` the IC50 was 2300 nM. Compound `CN(C)c1cc2ncnc(Nc3cccc(Br)c3)c2cn1` has an IC50 of 14 nM.
